The record followed here is ChEMBL document CHEMBL1138720, “Synthesis, (1-->3)-beta-D-glucanase-binding ability and phytoalexin-elicitor activity of (R)-2,3-epoxypropyl (1-->3)-beta-D-pentaglucoside” (Bioorg Med Chem Lett, 2004).

Assay [1] can be described thus: Inactivation of (1-3)-beta-D-glucanase by the compound was determined.
Assay [2] can be described thus: Phytoalexin-elicitor activity in tobacco cotyledon tissue was determined after 22 hrs. Type of assay: functional, Nicotiana tabacum.
Assay [3] in a line: Phytoalexin-elicitor activity in tobacco cotyledon tissue was determined after 44 hrs. Type of assay: functional, Nicotiana tabacum.
Assay [4] in a line: Phytoalexin-elicitor activity in tobacco cotyledon tissue was determined after 66 hrs. Type of assay: functional, Nicotiana tabacum.

`OC[C@H]1O[C@@H](O[C@@H]2[C@@H](O)[C@H](O[C@@H]3[C@@H](O)[C@H](O[C@@H]4[C@@H](O)[C@H](O[C@@H]5[C@@H](O)[C@H](OC[C@H]6CO6)O[C@H](CO)[C@H]5O)O[C@H](CO)[C@H]4O)O[C@H](CO)[C@H]3O)O[C@H](CO)[C@H]2O)[C@H](O)[C@@H](O)[C@@H]1O` yielded a K app in assay [1] of 0.000379 min⁻¹. In addition, the EC50 in assay [2] was 90 uM l-1; in assay [3], 80 uM l-1; in assay [4] it was 160 uM l-1.
